Test results published in PubChem BioAssay (NCI).
Values after ≈ are worked out from the molar mass of the structure shown.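 Results reflect a 48-hour exposure of cells in 96-well plates to compound at five concentrations. Here, GI50 denotes the concentration required for 50% inhibition of growth. TGI denotes the concentration required for complete inhibition of growth.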 Where a SMILES comes first, the peptide text is derived from it. The star is where a group is joined. Boc = CC(C)(C)OC(=O)*; OBn = c1ccc(CO*)cc1

Tests used:
Test in all cases: NCI tumour cell line growth inhibition, 48 h
NCI/ADR-RES ovarian = system: NCI/ADR-RES ovarian
SF-539 CNS = system: SF-539 CNS
K-562 leukemia = system: K-562 leukemia
RPMI-8226 leukemia = system: RPMI-8226 leukemia
BT-549 breast = system: BT-549 breast
NCI-H23 lung = system: NCI-H23 lung
MDA-N = system: MDA-N
IGROV1 ovarian = system: IGROV1 ovarian
SK-MEL-5 melanoma = system: SK-MEL-5 melanoma
OVCAR-5 ovarian = system: OVCAR-5 ovarian

SMILES	TGI (NCI/ADR-RES ovarian)	TGI (SF-539 CNS)	TGI (K-562 leukemia)	TGI (RPMI-8226 leukemia)	TGI (BT-549 breast)	TGI (NCI-H23 lung)	TGI (MDA-N)	TGI (IGROV1 ovarian)	TGI (SK-MEL-5 melanoma)	TGI (OVCAR-5 ovarian)	GI50 (NCI/ADR-RES ovarian) [µg/mL]	GI50 (SF-539 CNS) [µg/mL]	GI50 (K-562 leukemia) [µg/mL]	GI50 (RPMI-8226 leukemia) [µg/mL]	GI50 (BT-549 breast) [µg/mL]	GI50 (NCI-H23 lung) [µg/mL]	GI50 (MDA-N) [µg/mL]	GI50 (IGROV1 ovarian) [µg/mL]	GI50 (SK-MEL-5 melanoma) [µg/mL]	GI50 (OVCAR-5 ovarian) [µg/mL]
O=c1[nH]c(N/N=C\C(O)C(O)C(O)CO)nc2ccccc12 (configuration not stated)	> 100 µM	> 100 µM	> 100 µM	> 100 µM	> 100 µM	> 100 µM	> 100 µM	> 100 µM	> 100 µM	> 100 µM	–	–	–	–	–	–	–	–	–	–
Cc1cc(=O)oc2cc(O)ccc12	> 100 µM	> 100 µM	> 100 µM	> 100 µM	> 100 µM	> 100 µM	> 100 µM	> 100 µM	> 100 µM	> 100 µM	–	–	–	–	–	–	–	–	–	–
C[C@]12CC[C@@H]3c4ccc(OC(=O)c5ccccc5)cc4CC[C@H]3[C@@H]1CC[C@@H]2Oc1c2ccccc2nc2ccccc12	> 50 µM	–	17.8 µM	18.1 µM	25.1 µM	> 50 µM	11.6 µM	42.4 µM	18.5 µM	> 50 µM	–	–	–	–	–	–	–	–	–	–
Cc1c(-c2ccccc2)c(C#N)c2nnc(C(N)=O)c(N)n12	> 100 µM	> 100 µM	> 100 µM	> 100 µM	> 100 µM	> 100 µM	> 100 µM	> 100 µM	> 100 µM	> 100 µM	–	–	–	–	–	–	–	–	–	–
CCO/C(O)=C(/C(=N)N1CCCC1)C(=O)Nc1cccc(C(F)(F)F)c1	> 100 µM	51.9 µM	> 100 µM	> 100 µM	> 100 µM	> 100 µM	> 100 µM	> 100 µM	–	> 100 µM	–	–	–	–	–	–	–	–	–	–
COc1cc2c(/C=C3/C(=O)N(c4ccccc4)c4ccccc43)c(Cl)[nH]c2cc1C	6.49 µM	5.86 µM	> 100 µM	7.01 µM	7.56 µM	7.81 µM	5.52 µM	> 25.8 µM	8.35 µM	> 40.5 µM	–	–	–	–	–	–	–	–	–	–
O=C1C(Br)=C(c2ccccc2)S(=O)c2ccccc21 (configuration not stated)	> 100 µM	12.9 µM	11.8 µM	–	32.1 µM	39.7 µM	20.4 µM	23.1 µM	24.7 µM	41 µM	–	–	–	–	–	–	–	–	–	–
CC(C)N(C)C(=O)C12C3C4C1C1C2C3C41C#N (configuration not stated)	> 100 µM	> 100 µM	> 100 µM	–	> 100 µM	> 100 µM	> 100 µM	> 100 µM	> 100 µM	> 100 µM	–	–	–	–	–	–	–	–	–	–
[N-]=[N+]=Nc1ccc(CNc2cc(=O)[nH]c(=O)[nH]2)cc1	> 100 µM	> 100 µM	> 100 µM	> 100 µM	> 100 µM	> 100 µM	> 100 µM	> 100 µM	> 100 µM	> 100 µM	–	–	–	–	–	–	–	–	–	–
Cc1ccc(SC(=O)N2C(=S)NC(=NC3CCCCC3)C23CCCCC3)cc1	> 100 µM	> 100 µM	> 100 µM	> 100 µM	> 100 µM	> 100 µM	> 100 µM	> 100 µM	> 100 µM	> 100 µM	–	–	–	–	–	–	–	–	–	–
Cc1c(NC2(C)C(=O)N(/N=C/c3ccccc3)N=C2c2ccccc2)n[nH]c1-c1ccccc1 (configuration not stated)	> 100 µM	> 100 µM	> 100 µM	> 100 µM	> 100 µM	> 100 µM	> 100 µM	> 100 µM	> 100 µM	> 100 µM	–	–	–	–	–	–	–	–	–	–
CC(=O)N1CCN(C23OC4(N5CCN(C(C)=O)CC5)C5C6CC(C7C6C4C72)C53)CC1 (configuration not stated)	> 100 µM	> 100 µM	> 100 µM	> 100 µM	> 100 µM	> 100 µM	> 100 µM	> 100 µM	> 100 µM	> 100 µM	–	–	–	–	–	–	–	–	–	–
O=C(NCc1ccc(Cl)cc1)c1cc2sccc2nc1C(F)(F)F	> 100 µM	70 µM	> 100 µM	> 100 µM	> 100 µM	> 100 µM	> 100 µM	> 100 µM	> 100 µM	> 100 µM	–	–	–	–	–	–	–	–	–	–
O=c1[nH]nc(Cc2ccccc2)n1-n1cnnc1	> 100 µM	> 100 µM	> 100 µM	> 100 µM	> 100 µM	> 100 µM	> 100 µM	> 100 µM	> 100 µM	> 100 µM	–	–	–	–	–	–	–	–	–	–
COc1cc(/C=C2/N=C(c3ccccc3)N(C3=NNC4(C(=O)N3)c3ccccc3-c3ccccc34)NC2=O)ccc1O	> 150 µg/mL	59.3 µg/mL	> 150 µg/mL	> 150 µg/mL	47.5 µg/mL	15 µg/mL	65 µg/mL	63.3 µg/mL	39.6 µg/mL	> 150 µg/mL	45.8 (≈ 82.3 µM)	28.7 (≈ 51.6 µM)	48.6 (≈ 87.4 µM)	50.2 (≈ 90.1 µM)	25.9 (≈ 46.6 µM)	15 (≈ 27 µM)	31.1 (≈ 55.8 µM)	30.4 (≈ 54.6 µM)	20.3 (≈ 36.5 µM)	44.6 (≈ 80.1 µM)
Cc1ccc(S(=O)(=O)c2c(O)c3ccccc3n(C)c2=O)cc1	> 100 µM	> 100 µM	> 100 µM	> 100 µM	> 100 µM	> 100 µM	> 100 µM	> 100 µM	> 100 µM	> 100 µM	–	–	–	–	–	–	–	–	–	–
CCOc1cc(C2CC(c3ccc(NS(=O)(=O)c4cc([N+](=O)[O-])ccc4C)cc3)=NN2)ccc1O (configuration not stated)	71.3 µM	> 100 µM	99 µM	> 100 µM	51.6 µM	80.7 µM	> 100 µM	> 100 µM	37.8 µM	> 100 µM	–	–	–	–	–	–	–	–	–	–
CC(C)(C)OC(=O)NC(Cc1ccccc1)C(=O)NC(Cc1ccccc1)C(=O)NCC(=O)OCc1ccccc1 (stereo not drawn) (Boc-Phe-Phe-Gly-OBn; configuration not given here)	> 100 µM	44.1 µM	31.4 µM	39.6 µM	–	80.7 µM	53.3 µM	26.5 µM	–	> 100 µM	–	–	–	–	–	–	–	–	–	–
CN(Cc1cnc2nc(N)nc(N)c2n1)c1ccc(C(=O)NC(CCC(=O)NC(P(=O)(O)O)P(=O)(O)O)C(=O)O)cc1 (configuration not stated)	> 100 µM	> 100 µM	> 100 µM	> 100 µM	–	> 100 µM	> 100 µM	> 100 µM	> 100 µM	> 100 µM	–	–	–	–	–	–	–	–	–	–
CN(C)CCCOCCn1c2c(c3ccccc31)CCCC2	35.2 µM	33.2 µM	58.5 µM	33.9 µM	–	94.6 µM	29 µM	34 µM	25.3 µM	30.5 µM	–	–	–	–	–	–	–	–	–	–
